Experimental data taken from PubChem BioAssay AID1259407 (Chemical Carcinogenesis Research Information System (CCRIS), 2018).
Calls of active or inactive are those of the source. How the calls were made is not given here.

Test system: CCRIS mutagenicity, Ames/micronucleus/aberration tests
Test: CCRIS mutagenicity studies
[1] = Test System: AMES SALMONELLA TYPHIMURIUM, Strain/Indicator: TA98, Metabolic Activation: NONE, Method: PREINCUBATION
[2] = Test System: AMES SALMONELLA TYPHIMURIUM, Strain/Indicator: TA98, Metabolic Activation: NONE, Method: STANDARD PLATE
[3] = Test System: AMES SALMONELLA TYPHIMURIUM, Strain/Indicator: TA100, Metabolic Activation: NONE, Method: PREINCUBATION
[4] = Test System: AMES SALMONELLA TYPHIMURIUM, Strain/Indicator: TA100, Metabolic Activation: NONE, Method: STANDARD PLATE
[5] = Test System: AMES SALMONELLA TYPHIMURIUM, Strain/Indicator: TA1535, Metabolic Activation: NONE, Method: STANDARD PLATE
[6] = Test System: AMES SALMONELLA TYPHIMURIUM, Strain/Indicator: TA98, Metabolic Activation: RAT, LIVER, S-9, Method: STANDARD PLATE
[7] = Test System: AMES SALMONELLA TYPHIMURIUM, Strain/Indicator: TA100, Metabolic Activation: RAT, LIVER, S-9, Method: STANDARD PLATE

## CCOP(=S)(OCC)SCSCC
Test System: AMES SALMONELLA TYPHIMURIUM, Strain/Indicator: TA97A, Metabolic Activation: NONE, Method: STANDARD PLATE
  mutagenic call: inactive; negative
Test System: AMES SALMONELLA TYPHIMURIUM, Strain/Indicator: TA97A, Metabolic Activation: PLANT, HOMOGENATE, S-14, Method: STANDARD PLATE
  mutagenic call: inactive; negative
Test System: AMES SALMONELLA TYPHIMURIUM, Strain/Indicator: TA97A, Metabolic Activation: S-9, Method: STANDARD PLATE
  mutagenic call: inactive; negative
[1]
  mutagenic call: inactive; negative
[2]
  mutagenic call: inactive; negative
Test System: AMES SALMONELLA TYPHIMURIUM, Strain/Indicator: TA98, Metabolic Activation: PLANT, HOMOGENATE, S-14, Method: STANDARD PLATE
  mutagenic call: inactive; negative
Test System: AMES SALMONELLA TYPHIMURIUM, Strain/Indicator: TA98, Metabolic Activation: S-9, Method: STANDARD PLATE
  mutagenic call: inactive; negative
[3]
  mutagenic call: inactive; negative
[4]
  mutagenic call: inactive; negative
Test System: AMES SALMONELLA TYPHIMURIUM, Strain/Indicator: TA100, Metabolic Activation: PLANT, HOMOGENATE, S-14, Method: STANDARD PLATE
  mutagenic call: inactive; negative
Test System: AMES SALMONELLA TYPHIMURIUM, Strain/Indicator: TA100, Metabolic Activation: S-9, Method: STANDARD PLATE
  mutagenic call: inactive; negative
[5]
  mutagenic call: inactive; negative
Test System: AMES SALMONELLA TYPHIMURIUM, Strain/Indicator: TA1535, Metabolic Activation: PLANT, HOMOGENATE, S-14, Method: STANDARD PLATE
  mutagenic call: inactive; negative
Test System: AMES SALMONELLA TYPHIMURIUM, Strain/Indicator: TA1535, Metabolic Activation: S-9, Method: STANDARD PLATE
  mutagenic call: inactive; negative

## O=[N+]([O-])c1cccc2c1ccc1cccc([N+](=O)[O-])c12
Test System: AMES SALMONELLA TYPHIMURIUM, Strain/Indicator: TA98(1,8-DNP6), Metabolic Activation: NONE, Method: STANDARD PLATE
  mutagenic call: active; positive
Test System: AMES SALMONELLA TYPHIMURIUM, Strain/Indicator: TA98(NR), Metabolic Activation: NONE, Method: STANDARD PLATE
  mutagenic call: active; positive
[2]
  mutagenic call: active; positive
[4]
  mutagenic call: active; positive
Test System: AMES SALMONELLA TYPHIMURIUM, Strain/Indicator: YG1021, Metabolic Activation: NONE, Method: STANDARD PLATE
  mutagenic call: active; positive
Test System: AMES SALMONELLA TYPHIMURIUM, Strain/Indicator: YG1024, Metabolic Activation: NONE, Method: STANDARD PLATE
  mutagenic call: active; positive
Test System: AMES SALMONELLA TYPHIMURIUM, Strain/Indicator: YG1026, Metabolic Activation: NONE, Method: STANDARD PLATE
  mutagenic call: active; positive
Test System: AMES SALMONELLA TYPHIMURIUM, Strain/Indicator: YG1029, Metabolic Activation: NONE, Method: STANDARD PLATE
  mutagenic call: active; positive

## Cc1c(N)nc(C(CC(N)=O)NCC(N)C(N)=O)nc1C(=O)NC(C(=O)NC(C)C(O)C(C)C(=O)NC(C(=O)NCCc1nc(-c2nc(C(=O)NCCc3cnc[nH]3)cs2)cs1)C(C)O)C(OC1OC(CO)C(O)C(O)C1OC1OC(CO)C(O)C(OC(N)=O)C1O)c1cnc[nH]1 (stereo not given)
Test System: AMES SALMONELLA TYPHIMURIUM, Strain/Indicator: TA102, Metabolic Activation: NONE, Method: PREINCUBATION
  mutagenic call: active; positive

## CCCCCCN(N=O)/C(N)=N/[N+](=O)[O-]
[5]
  mutagenic call: active; positive

## CC(Br)(CBr)COP(=O)(OCC(C)(Br)CBr)OCC(C)(Br)CBr (stereo not given)
Test System: AMES SALMONELLA TYPHIMURIUM, Strain/Indicator: TA100, Metabolic Activation: RAT, LIVER, MICROSOMES, PHENOBARBITAL, Method: PREINCUBATION
  mutagenic call: inactive; negative
Test System: AMES SALMONELLA TYPHIMURIUM, Strain/Indicator: TA100, Metabolic Activation: RAT, LIVER, MICROSOMES, Method: PREINCUBATION
  mutagenic call: inactive; negative

## O=[N+]([O-])c1c2c(cc3c1ccc1ccccc13)C=C[C@@H](O)[C@@H]2O
[2]
  mutagenic call: active; positive
[4]
  mutagenic call: inactive; negative

## CCCCOC(=O)c1ccccc1C(=O)OCc1ccccc1
End Point: IN VITRO CHROMOSOMAL ABERRATIONS, Test System: CHINESE HAMSTER OVARY CELLS, Metabolic Activation: NONE
  mutagenic call: inactive; negative
End Point: IN VITRO CHROMOSOMAL ABERRATIONS, Test System: CHINESE HAMSTER OVARY CELLS, Metabolic Activation: RAT, LIVER, S-9, AROCLOR 1254
  mutagenic call: inactive; negative
Test System: AMES SALMONELLA TYPHIMURIUM, Strain/Indicator: TA98, Metabolic Activation: HAMSTER, LIVER, S-9, AROCLOR 1254 (10%), Method: PREINCUBATION
  mutagenic call: inactive; negative
[1]
  mutagenic call: inactive; negative
Test System: AMES SALMONELLA TYPHIMURIUM, Strain/Indicator: TA98, Metabolic Activation: RAT, LIVER, S-9, AROCLOR 1254 (10%), Method: PREINCUBATION
  mutagenic call: inactive; negative
Test System: AMES SALMONELLA TYPHIMURIUM, Strain/Indicator: TA100, Metabolic Activation: HAMSTER, LIVER, S-9, AROCLOR 1254 (10%), Method: PREINCUBATION
  mutagenic call: inactive; negative
[3]
  mutagenic call: inactive; negative
Test System: AMES SALMONELLA TYPHIMURIUM, Strain/Indicator: TA100, Metabolic Activation: RAT, LIVER, S-9, AROCLOR 1254 (10%), Method: PREINCUBATION
  mutagenic call: inactive; negative
Test System: AMES SALMONELLA TYPHIMURIUM, Strain/Indicator: TA1535, Metabolic Activation: HAMSTER, LIVER, S-9, AROCLOR 1254 (10%), Method: PREINCUBATION
  mutagenic call: inactive; negative
Test System: AMES SALMONELLA TYPHIMURIUM, Strain/Indicator: TA1535, Metabolic Activation: NONE, Method: PREINCUBATION
  mutagenic call: inactive; negative
Test System: AMES SALMONELLA TYPHIMURIUM, Strain/Indicator: TA1535, Metabolic Activation: RAT, LIVER, S-9, AROCLOR 1254 (10%), Method: PREINCUBATION
  mutagenic call: inactive; negative
Test System: AMES SALMONELLA TYPHIMURIUM, Strain/Indicator: TA1537, Metabolic Activation: HAMSTER, LIVER, S-9, AROCLOR 1254 (10%), Method: PREINCUBATION
  mutagenic call: inactive; negative
Test System: AMES SALMONELLA TYPHIMURIUM, Strain/Indicator: TA1537, Metabolic Activation: NONE, Method: PREINCUBATION
  mutagenic call: inactive; negative
Test System: AMES SALMONELLA TYPHIMURIUM, Strain/Indicator: TA1537, Metabolic Activation: RAT, LIVER, S-9, AROCLOR 1254 (10%), Method: PREINCUBATION
  mutagenic call: inactive; negative
Test System: MOUSE LYMPHOMA, Strain/Indicator: L5178Y (TK+/TK-), Metabolic Activation: NONE, Method: SUSPENSION/PLATE
  mutagenic call: inactive; negative
Test System: MOUSE LYMPHOMA, Strain/Indicator: L5178Y (TK+/TK-), Metabolic Activation: RAT LIVER S-9, Method: SUSPENSION/PLATE
  mutagenic call: active; positive
Test System: MOUSE LYMPHOMA, Strain/Indicator: L5178Y (TK+/TK-), Metabolic Activation: RAT, LIVER, S-9, AROCLOR 1254, Method: SUSPENSION/PLATE
  mutagenic call: inactive; negative

## CCOP(=O)(OCC)Oc1nc(Cl)c(Cl)cc1Cl
[2]
  mutagenic call: inactive; negative
[6]
  mutagenic call: inactive; negative
[4]
  mutagenic call: inactive; negative
[7]
  mutagenic call: inactive; negative

## COC(=O)C1=CCCN(C)C1
[2]
  mutagenic call: inactive; negative
[6]
  mutagenic call: inactive; negative
[4]
  mutagenic call: active; positive
[7]
  mutagenic call: active; positive

## OC1C=Cc2c(cc3ccc4cccc5ccc2c3c45)C1O (stereo not given)
Test System: CHINESE HAMSTER V-79, Strain/Indicator: V-79/OUABAIN, Metabolic Activation: HAMSTER, EMBRYO, CELL-MEDIATED, Method: STANDARD PLATE
  mutagenic call: active; positive

## OC[C@@H](O)[C@@H](O)CO
[2]
  mutagenic call: inactive; negative
[6]
  mutagenic call: inactive; negative
[4]
  mutagenic call: inactive; negative
[7]
  mutagenic call: inactive; negative
[5]
  mutagenic call: inactive; negative
Test System: AMES SALMONELLA TYPHIMURIUM, Strain/Indicator: TA1535, Metabolic Activation: RAT, LIVER, S-9, Method: STANDARD PLATE
  mutagenic call: inactive; negative
Test System: AMES SALMONELLA TYPHIMURIUM, Strain/Indicator: TA1537, Metabolic Activation: NONE, Method: STANDARD PLATE
  mutagenic call: inactive; negative
Test System: AMES SALMONELLA TYPHIMURIUM, Strain/Indicator: TA1537, Metabolic Activation: RAT, LIVER, S-9, Method: STANDARD PLATE
  mutagenic call: inactive; negative
Test System: E. COLI, Strain/Indicator: WP2 UVRA, Metabolic Activation: NONE, Method: STANDARD PLATE
  mutagenic call: inactive; negative
Test System: E. COLI, Strain/Indicator: WP2 UVRA, Metabolic Activation: RAT, LIVER, S-9, Method: STANDARD PLATE
  mutagenic call: inactive; negative

## C=C(C)C(C)Cl (stereo not given)
Test System: AMES SALMONELLA TYPHIMURIUM, Strain/Indicator: TA100, Metabolic Activation: NONE, Method: LIQUID SUSPENSION
  mutagenic call: active; positive
